Data on 4 compounds can be found in paper PMC8879200, “Design, Synthesis, and Biological Evaluation of 4,4’-Difluorobenzhydrol Carbamates as Selective M1 Antagonists” (Pharmaceuticals, 2022).

Data set [1] addresses T1, hM1 (Homo sapiens, UniProt P11229).
T1 construct: host or cells: CHO-K1, stably transfected
T1 sequence (P11229 1-460): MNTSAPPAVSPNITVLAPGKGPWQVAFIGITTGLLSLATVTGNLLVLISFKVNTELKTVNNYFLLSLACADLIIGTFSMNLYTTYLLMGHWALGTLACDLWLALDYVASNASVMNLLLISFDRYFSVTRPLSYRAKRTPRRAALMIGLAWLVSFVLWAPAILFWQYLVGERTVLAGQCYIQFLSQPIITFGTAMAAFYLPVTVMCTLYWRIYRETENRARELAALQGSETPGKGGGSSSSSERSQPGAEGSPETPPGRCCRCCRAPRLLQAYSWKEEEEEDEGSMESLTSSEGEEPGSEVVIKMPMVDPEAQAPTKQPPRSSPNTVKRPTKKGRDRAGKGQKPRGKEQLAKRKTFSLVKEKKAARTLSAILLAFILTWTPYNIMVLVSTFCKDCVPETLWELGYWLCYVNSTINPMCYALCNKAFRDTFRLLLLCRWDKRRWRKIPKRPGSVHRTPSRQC
Briefly: Competitive [3H]NMS radioligand binding, CHO-hM1 cell membranes. The protocol: (§1) We first assessed the carbamates’ affinities for human muscarinic acetylcholine receptors subtypes hM1–5 by means of a competitive radioligand binding assay displacing [N-methyl-^3H]scopolamine methyl chloride ([^3H]NMS) in cell membranes expressing the individual receptors.
(§2) Cell membranes bearing hM1-hM5 receptors were prepared as described previously. Briefly, stably transfected CHO-K1 cells were grown to at least 80% confluency in T175 flasks, washed with ice-cold DPBS, and scraped into a mixture of ice-cold of 2 mL 10 mM Tris-HCl, 1 mM EDTA-buffer, pH 7.4 and 200 µL protease inhibitor. A cell homogenate was prepared by passing the cell suspension through a G29 needle. The cell homogenates corresponding to two T175 flasks were combined and subsequently centrifuged (10 min, 1000 × g, 4 °C). Ultracentrifugation of the supernatant (1 h, 100,000 × g, 4 °C) yielded a membrane pellet, which was suspended in 250 µL 50 mM Tris-HCl buffer, pH 7.4 and stored at −80 °C.
(§3) Maximum binding was measured by using 5 µL DMSO, and nonspecific binding was measured by using 5 µL of 1 µM scopolamine in DMSO. […] The membrane-bound radioactivity was recovered by filtration through Whatman™ GF/B glass fibre filters pre-soaked in aqueous 0.1% PEI using an M-36 tygon tubed cell harvester (Brandel®, Gaithersburg, MD, USA). Membranes were washed 3 times with ice-cold washing buffer (50 mM Tris, pH 7.4) before being dried, transferred to 2 mL scintillation cocktail (UltimaGold™, high flashpoint LSC cocktail, PerkinElmer, Waltham, MA, USA) and counted in a β -counter (Hidex TDCR Liquid Scintillation Counter in CPM mode). IC50 values were calculated by a variable slope logistic regression using at least five distinct concentrations of test compounds, pipetted in triplicates.

Data set [2] concerns the target T2, hM5 (Homo sapiens, UniProt P08912).
T2 construct: host or cells: CHO-K1, stably transfected
T2 sequence (P08912 1-532): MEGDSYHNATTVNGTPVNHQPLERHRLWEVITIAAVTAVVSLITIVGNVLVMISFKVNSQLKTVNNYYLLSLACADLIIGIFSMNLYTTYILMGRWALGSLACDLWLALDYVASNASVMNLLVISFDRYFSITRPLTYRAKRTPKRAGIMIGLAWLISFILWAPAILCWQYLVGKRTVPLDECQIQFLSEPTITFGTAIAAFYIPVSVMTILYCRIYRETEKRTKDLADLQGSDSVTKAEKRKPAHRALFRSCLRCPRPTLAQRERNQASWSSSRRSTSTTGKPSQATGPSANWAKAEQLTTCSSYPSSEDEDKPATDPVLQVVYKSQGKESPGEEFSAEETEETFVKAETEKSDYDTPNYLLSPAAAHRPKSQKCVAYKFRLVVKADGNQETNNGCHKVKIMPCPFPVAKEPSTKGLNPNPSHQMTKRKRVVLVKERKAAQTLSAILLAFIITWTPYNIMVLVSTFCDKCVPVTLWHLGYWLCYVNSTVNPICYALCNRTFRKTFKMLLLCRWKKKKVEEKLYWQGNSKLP
Briefly: Competitive [3H]NMS radioligand binding, CHO-hM5 cell membranes. Here is the method:
as §1, §2, §3

Data set [3] addresses T3, hM4 (Homo sapiens, UniProt P08173).
T3 construct: host or cells: CHO-K1, stably transfected
T3 sequence (P08173 1-479): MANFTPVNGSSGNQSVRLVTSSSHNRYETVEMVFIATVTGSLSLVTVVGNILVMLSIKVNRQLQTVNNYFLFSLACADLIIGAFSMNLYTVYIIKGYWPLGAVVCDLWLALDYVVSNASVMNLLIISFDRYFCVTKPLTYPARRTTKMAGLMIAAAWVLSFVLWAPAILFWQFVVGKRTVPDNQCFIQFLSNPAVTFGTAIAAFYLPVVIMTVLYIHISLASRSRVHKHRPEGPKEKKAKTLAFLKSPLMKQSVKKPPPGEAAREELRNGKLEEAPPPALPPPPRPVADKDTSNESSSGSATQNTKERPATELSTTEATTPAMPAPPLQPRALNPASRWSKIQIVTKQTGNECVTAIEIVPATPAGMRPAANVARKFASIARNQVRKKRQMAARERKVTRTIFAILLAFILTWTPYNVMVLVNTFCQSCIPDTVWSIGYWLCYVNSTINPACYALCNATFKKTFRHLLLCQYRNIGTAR
The data set is described as follows: Competitive [3H]NMS radioligand binding, CHO-hM4 cell membranes. Here is the method:
as §1, §2, §3

For data set [4], the target named is T4, hM3 (Homo sapiens, UniProt P20309).
T4 construct: host or cells: CHO-K1, stably transfected
The data set is described as follows: Competitive [3H]NMS radioligand binding, CHO-hM3 cell membranes. To be noted: for Ki: read-out: Affinity: Ki ± SD, hM3. Here is the method:
as §1, §2, §3

Data set [5] in a line: High throughput HPLC-logD (lipophilicity). The conditions noted are these: pH 7.4.
Method: Briefly, a mixture of toluene (≥98%, Sigma-Aldrich, St. Louis, MO, USA) and triphenylene (≥99.9%, Carl Roth, Karlsruhe, Germany) was used as internal standard. Each sample was dissolved in the internal standard mixture. Using gradient elution, the injection volume was set to 7 µL, the flow rate was 1.5 mL/min, and the mobile phase consisted of a mixture of methanol and 0.01 M sodium phosphate buffer pH 7.4. The HPLC-logD values were derived from the measured retention times following the previously published equation [27, 30].
The target in data set [6] is T5, hM2 (Homo sapiens, UniProt P08172).
T5 construct: host or cells: CHO-K1, stably transfected
T5 sequence (P08172 1-466): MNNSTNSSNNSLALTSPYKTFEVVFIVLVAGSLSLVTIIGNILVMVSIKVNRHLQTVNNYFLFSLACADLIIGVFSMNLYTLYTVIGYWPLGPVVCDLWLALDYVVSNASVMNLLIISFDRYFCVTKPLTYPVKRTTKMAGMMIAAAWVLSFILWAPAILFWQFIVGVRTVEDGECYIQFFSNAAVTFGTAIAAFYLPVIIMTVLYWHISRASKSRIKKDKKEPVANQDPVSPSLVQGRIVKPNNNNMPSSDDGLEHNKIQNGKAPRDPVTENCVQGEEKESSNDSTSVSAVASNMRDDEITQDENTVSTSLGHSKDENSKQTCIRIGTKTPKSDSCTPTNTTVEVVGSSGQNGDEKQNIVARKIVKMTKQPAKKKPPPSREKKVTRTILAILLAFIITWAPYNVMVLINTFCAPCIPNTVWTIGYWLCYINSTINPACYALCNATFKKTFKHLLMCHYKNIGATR
Briefly: Competitive [3H]NMS radioligand binding, CHO-hM2 cell membranes. The conditions noted are these: for Ki: read-out: Affinity: Ki ± SD, hM2. The protocol:
as §1, §2, §3

The mark [7] stands for this setting: inhibition of [3H]NMS binding, CHO-hM1 membranes, read-out: Affinity: Ki ± SD, hM1.
[8] abbreviates: inhibition of [3H]NMS binding, CHO-hM5 membranes, read-out: Affinity: Ki ± SD, hM5.
Setting [9] is: inhibition of [3H]NMS binding, CHO-hM4 membranes, read-out: Affinity: Ki ± SD, hM4.
Setting [10] is: single ligand concentration corresponding to a Ki of 1 µM (Cheng-Prusoff).

Values joined by “and” are separate entries in the source; they are usually repeats but may differ in a detail not shown here. Equal values may be shown once. Read-outs that look alike come from different tables or passages of the source. Some results are limits rather than exact numbers.

T4 sequence (P20309 whole entry): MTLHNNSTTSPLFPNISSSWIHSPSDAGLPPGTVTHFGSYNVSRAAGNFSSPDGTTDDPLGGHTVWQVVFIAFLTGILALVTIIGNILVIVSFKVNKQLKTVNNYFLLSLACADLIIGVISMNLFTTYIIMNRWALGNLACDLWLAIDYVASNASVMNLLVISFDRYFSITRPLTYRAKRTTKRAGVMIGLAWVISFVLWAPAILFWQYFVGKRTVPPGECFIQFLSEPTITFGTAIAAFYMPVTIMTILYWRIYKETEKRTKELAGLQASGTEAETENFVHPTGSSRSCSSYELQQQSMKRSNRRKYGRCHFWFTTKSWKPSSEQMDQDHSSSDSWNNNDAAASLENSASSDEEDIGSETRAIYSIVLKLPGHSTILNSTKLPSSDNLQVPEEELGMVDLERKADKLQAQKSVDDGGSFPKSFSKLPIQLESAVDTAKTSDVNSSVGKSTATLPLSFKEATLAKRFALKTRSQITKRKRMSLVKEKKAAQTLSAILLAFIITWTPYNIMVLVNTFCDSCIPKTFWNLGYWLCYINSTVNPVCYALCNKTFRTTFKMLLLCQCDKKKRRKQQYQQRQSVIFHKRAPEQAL

For the compound `CN1CC2(CCN(C(=O)OC(c3ccc(F)cc3)c3ccc(F)cc3)C2)C1` [Compound 5, Bis(4-fluorophenyl)methyl 2-methyl-2,6-diazaspiro[3.4]octane-6-carboxylate], the Ki – broadly, the dissociation constant of the complex between target and ligand, obtained from inhibition or displacement – in data set [1] (setting [7]) is 24.9 ± 6.2 nM; in data set [2] (setting [8]), 231 ± 25.7 nM; in data set [3] (setting [9]), 150 ± 52.9 nM; in data set [4], 165 ± 37.5 nM; in data set [6], more than 1000 nM. Besides, the “x-Fold selectivity for hM1 vs. hM5” value in data set [2] (ratio of Ki values hM5/hM1) is 9 fold and 9.3 fold. Further, the “x-Fold selectivity for hM1 vs. hM4” value in data set [3] (ratio of Ki values hM4/hM1) turned out to be 6.0 fold. Besides, the “x-Fold selectivity for hM1 vs. hM3” value in data set [4] (ratio of Ki values hM3/hM1) is listed as 6.6 fold. In data set [5], the chromatographic logD (usually a lipophilicity value derived from retention on a column) turned out to be 2.69 ± 0.01. For the same compound, in data set [6] (ratio of Ki values hM2/hM1), the “x-Fold selectivity for hM1 vs. hM2” value is given as more than 40 fold.
`CN1CCOCC1CNC(=O)OC(c1ccc(F)cc1)c1ccc(F)cc1` (stereo not shown) [Compound 12, Bis(4-fluorophenyl)methyl ((4-methylmorpholin-3-yl)methyl)carbamate]: in data set [1] (setting [10]), the “Displacement ± SD of [3H]NMS binding, hM1” value was found to be 39 ± 5%. In addition, the “Displacement ± SD of [3H]NMS binding, hM5” value in data set [2] (setting [10]) came to 43 ± 11%. In addition, in data set [3] (setting [10]), the “Displacement ± SD of [3H]NMS binding, hM4” value is 20 ± 8%. Also, the “Displacement ± SD of [3H]NMS binding, hM3” value in data set [4] (setting [10]) stood at 25 ± 9%. The compound also displayed a chromatographic logD in data set [5] of 2.82 ± 0.04. Besides, in data set [6] (setting [10]), the “Displacement ± SD of [3H]NMS binding, hM2” value is given as 8 ± 5%.
Take `CN1[C@@H]2CC[C@H]1CN(C(=O)OC(c1ccc(F)cc1)c1ccc(F)cc1)C2` [Compound 4, Bis(4-fluorophenyl)methyl (1R,5S)-8-methyl-3,8-diazabicyclo[3.2.1]octane-3 carboxylate]: the Ki in data set [1] was determined as 16.5 ± 2.8 nM; in data set [2], 41.8 ± 14.8 nM; in data set [3], 19.6 ± 5.5 nM; in data set [4], 142 ± 24.2 nM; in data set [6], 850 ± 39.8 nM. In addition, the chromatographic logD in data set [5] came to 3.28 ± 0.03.
In the case of `CN1CCN(C(=O)OC(c2ccc(F)cc2)c2ccc(F)cc2)CC1` [Compound 1, Bis(4-fluorophenyl)methyl 4-methylpiperazine-1-carboxylate], the Ki in data set [1] (setting [7]) was 15.2 ± 3.6 nM; in data set [2] (setting [8]) it was 50.6 ± 3.9 nM; in data set [3] (setting [9]), 54.8 ± 20.5 nM; in data set [4], 226 ± 85.2 nM; in data set [6], more than 1000 nM. In data set [5], this compound returned a chromatographic logD of 3.16 ± 0.01.
